Assay results reported in patent US20200277571A1, “METHOD FOR AMPLIFYING CONE PHOTORECEPTORS OR ROD PHOTORECEPTORS USING DORSALIZATION SIGNAL TRANSMITTER OR VENTRALIZATION SIGNAL TRANSMITTER” (RIKEN, priority 2017, published 2020).

What was measured:
ALDH1A1 = experiment: Immunostaining for ALDH1A1 (dorsal marker) of retinal tissue; format: cell-based, human
Method: [1] Control group (FIG. 2a, f, k, p); according to the method described in Example 1, culture was performed up to day 70 or day 75 from the start of suspension culture and without addition. [2]+BMP group (FIG. 2b, g, 1, q); 0.15 nM BMP4 was added from day 22 from the start of suspension culture to completion of suspension culture, and cultured up to day 70 or day 75 from the start of suspension culture. [3]+Cyclopamine-KAAD group (FIG. 2c, h, m, r); 500 nM Cyclopamine-KAAD was added from day 22 from the start of suspension culture to completion of the suspension culture, and cultured up to day 70 or day 75 from the start of suspension culture. [4]+LDN193189 group (FIG. 2d, i, n, s); 100 nM LDN193189 was added from day 22 from the start of suspension culture to completion of the suspension culture, and cultured up to day 70 or day 75 from the start of suspension culture. [5]+SAG group (FIG. 2e, j, o, t); 100 nM SAG was added from day 22 from the start of suspension culture to completion of the suspension culture, and cultured up to day 70 or day 75 from the start of suspension culture.
The retinal tissue produced by the methods described in Example 2 and Example 7 was fixed with 4% para-formaldehyde, cryosections were prepared, and immunostaining for ALDH1A1 was performed. The retinal tissue used was one on day 75 from the start of suspension culture similar to Example 2 and one on about day 40 from the start of suspension culture and cultured under the same conditions except the culture period as in Example 7.

[1] = test system: photoreceptor precursor and cone photoreceptor precursor in retinal tissue produced from human ES cells; experiment: Immunostaining for CRX and TRβ2 and CRX::Venus fluorescence observation of retinal tissue, day 70-75 of suspension culture; format: cell-based; conditions: for CRX-positive and TRβ2-positive cells (cone photoreceptor precursor; proportion to DAPI-positive cells): day 70-75, Control (NUC) about 6.8%; for CRX-positive and TRβ2-positive cells (cone photoreceptor precursor; proportion to DAPI-positive cells) / CRX-positive cells (proportion to DAPI-positive cells) / green fluorescence shown by knocked-in CRX::Venus (order of groups) / cone photoreceptor precursor that emerges in initial stage of development (CRX-positive, TRβ2-expressing) versus Control group / CRX-positive cells (photoreceptor precursors) versus retinal tissue of the Control group: 0.15 nM BMP4, 500 nM Cyclopamine-KAAD; for CRX-positive and TRβ2-positive cells (cone photoreceptor precursor; proportion to DAPI-positive cells) / CRX-positive cells (proportion to DAPI-positive cells): 100 nM LDN193189 or 100 nM SAG from day 22; for CRX-positive cells (proportion to DAPI-positive cells): day 70-75 from start of suspension culture, Control (NUC) about 10.6%; for green fluorescence shown by knocked-in CRX::Venus (order of groups): day 70, fluorescence microscope; for green fluorescence shown by knocked-in CRX::Venus (order of groups) / cone photoreceptor precursor that emerges in initial stage of development (CRX-positive, TRβ2-expressing) versus Control group / CRX-positive cells (photoreceptor precursors) versus retinal tissue of the Control group: 100 nM LDN193189, 100 nM SAG from day 22; for cone photoreceptor precursor that emerges in initial stage of development (CRX-positive, TRβ2-expressing) versus Control group: day 70 or 75; for CRX::Venus-positive cells (GFP immunostaining) versus Control (NUC) group / CRX-positive cells (photoreceptor precursors) versus retinal tissue of the Control group: day 75; for CRX::Venus-positive cells (GFP immunostaining) versus Control (NUC) group: along with change of ALDH1A3 region, 0.15 nM BMP4, 100 nM LDN193189, 100 nM SAG from day 22; for CRX-positive cells (photoreceptor precursors) versus retinal tissue of the Control group: immunostained sections
Method: CRX::Venus knock-in human ES cells (derived from KhES-1; Nakano, T. et al. Cell Stem Cell 2012, 10(6), 771-785) were cultured according to the methods described in “Ueno, M. et al. PNAS 2006, 103(25), 9554-9559” “Watanabe, K. et al. Nat Biotech 2007, 25, 681-686”. As a medium for culturing human ES cells, DMEM/F12 medium (Sigma) supplemented with 20% KSR (KnockOut™ Serum Replacement; Invitrogen), 0.1 mM 2-mercaptoethanol, 2 mM L-glutamine, ix non-essential amino acid, 7.5 ng/mL bFGF was used.
A cell aggregate containing a retinal tissue was prepared by the method described in “Kuwahara et al. Nat Commun 2015, 19(6), 6286-” after modification in part. That is, the aforementioned cultured ES cells were individually dispersed using TrypLE Express (Invitrogen), and the individually dispersed human ES cells were suspended in 100 μL of a serum-free medium in a cell non-adhesive 96 well plate (SUMILON spheroid plate, SUMITOMO BAKELITE CO., LTD.) at 9×10^3 cells per well to allow rapid formation of aggregates, after which they were cultured at 37° C., 5% CO2. As the serum-free medium therefor, a serum-free medium obtained by adding 10% KSR, 450 μM 1-monothioglycerol, 1× Chemically defined lipid concentrate, 5 mg/mL BSA, 20 μM Y27632 to a 1:1 mixture of F-12 medium and IMDM medium was used. At 6 days after the start of suspension culture, BMP4 at a final concentration of 1.5 nM was added and suspension culture was continued. A half amount of the culture medium in the well was exchanged with the above-mentioned medium not supplemented with a BMP signal transduction pathway agonist every 3 or 4 days. A cell aggregate containing a retinal tissue at day 18 from the start of suspension culture was cultured in suspension in a serum-free medium (DMEM/F12 medium supplemented with 1% N2 supplement) containing 3 μM CHIR99021 and 5 μM SU5402 for 4 days, namely, up to day 22 from the start of suspension culture. Thereafter, suspension culture of the cell aggregate containing the retinal tissue was continued until it was appropriately used for analysis and the like. As the culture medium during this period, serum-containing media shown in the following to [3] were used and the cell aggregate was cultured under 5% CO2 conditions.
[1] day 22 to day 38 from the start of suspension culture; DMEM/F12 medium supplemented with 10% fetal calf serum, 1% N2 supplement, and 100 μM taurine. day 38 to day 60 from the start of suspension culture; a 1:3 mixed medium of DMEM/F12 medium supplemented with 10% fetal calf serum, 1% N2 supplement, and 100 μM taurine, and Neurobasal medium supplemented with 10% fetal calf serum, 2% B27 supplement, and 100 μM taurine. after day 60 from the start of suspension culture; Neurobasal medium supplemented with 10% fetal calf serum, 2% B27 supplement, and 100 μM taurine.
[1] Control group (FIG. 2a, f, k, p); according to the method described in Example 1, culture was performed up to day 70 or day 75 from the start of suspension culture and without addition. [2]+BMP group (FIG. 2b, g, 1, q); 0.15 nM BMP4 was added from day 22 from the start of suspension culture to completion of suspension culture, and cultured up to day 70 or day 75 from the start of suspension culture. [3]+Cyclopamine-KAAD group (FIG. 2c, h, m, r); 500 nM Cyclopamine-KAAD was added from day 22 from the start of suspension culture to completion of the suspension culture, and cultured up to day 70 or day 75 from the start of suspension culture. [4]+LDN193189 group (FIG. 2d, i, n, s); 100 nM LDN193189 was added from day 22 from the start of suspension culture to completion of the suspension culture, and cultured up to day 70 or day 75 from the start of suspension culture. [5]+SAG group (FIG. 2e, j, o, t); 100 nM SAG was added from day 22 from the start of suspension culture to completion of the suspension culture, and cultured up to day 70 or day 75 from the start of suspension culture. […]

[2] = about day 40 from start of suspension culture, 0.15 nM BMP4, 100 nM LDN193189, 100 nM SAG from day 22

Row | Compound | clear ALDH1A1-positive region (dorsal region) (ALDH1A1; [2]) | clear ALDH1A1-positive region (dorsal region) (ALDH1A1; day 75 from start of suspension culture, 0.15 nM BMP4 from day 22) | CRX-positive and TRβ2-positive cells (cone photoreceptor precursor; proportion to DAPI-positive cells) [1] | CRX-positive cells (proportion to DAPI-positive cells) [1] | green fluorescence shown by knocked-in CRX::Venus (order of groups) [1] | cone photoreceptor precursor that emerges in initial stage of development (CRX-positive, TRβ2-expressing) versus Control group [1] | CRX::Venus-positive cells (GFP immunostaining) versus Control (NUC) group [1] | CRX-positive cells (photoreceptor precursors) versus retinal tissue of the Control group [1]
1 | BMP4: BMP protein; BMP signal transduction pathway agonist used as dorsalization signal transmitter | found only in +BMP4 group | not observed | about 10.8% | about 17.0% | observed more in the order of +BMP4 group, +Cyclopamine-KAAD group, Control group, +LDN193189 group, +SAG group | observed more | increased | clearly higher
2 | CNC1CCC(N(Cc2cccc(-c3ccncc3)c2)C(=O)c2sc3ccccc3c2Cl)CC1 (stereo not drawn) [SAG] | not found |  | ~3.2% | ~5.1% | observed more in the order of +BMP4 group, +Cyclopamine-KAAD group, Control group, +LDN193189 group, +SAG group | less | decreased | lesser
3 | c1ccc2c(-c3cnn4cc(-c5ccc(N6CCNCC6)cc5)cnc34)ccnc2c1 [LDN193189, 4-[6-(4-piperazin-1-ylphenyl)pyrazolo[1,5-a]pyrimidin-3-yl]quinoline] | not found |  | ~4.5% | about 6.8% | observed more in the order of +BMP4 group, +Cyclopamine-KAAD group, Control group, +LDN193189 group, +SAG group | less | decreased | less
4 | CC1=C2C[C@H]3[C@@H](CC=C4CC(=O)CC[C@@]43C)[C@@H]2CC[C@]12O[C@@H]1C[C@H](C)CN(CCNC(=O)CCCCCNC(=O)CCc3ccccc3)[C@H]1[C@H]2C [Cyclopamine-KAAD] |  |  | ~8.1% | ~14.1% | observed more in the order of +BMP4 group, +Cyclopamine-KAAD group, Control group, +LDN193189 group, +SAG group | observed more |  | Slightly more
